According to patent publication US20260165949A1, “COMPOSITION CONTAINING N-NONYLDEOXYNOJIRIMYCIN FOR SUPPRESSION, ALLEVIATION, PALLIATION, OR TREATMENT OF SKIN ITCHING” (CHA UNIVERSITY INDUSTRY-ACADEMIC COOPERATION FOUNDATION, priority 2022, published 2026):

Columns and labels:
[1] = test system: CCL22 release in HaCaT cells; experiment: CCL22 release induced by TNF-α/IFN-γ stimulation in HaCaT cells (ELISA); type: cell-based; details: various concentrations; TNF-α and IFN-γ 10 ng/ml each, 24 hours; FIG. 6
Protocol: (§1) Epidermal cells (HaCaT cells) were purchased from Thermo Fisher Scientific (USA). HaCaT cells were cultured in a DMEM medium (Dulbecco's Modified Eagle's medium (high glucose), Hyclone, USA) containing 10% fetal bovine serum (FBS) and 1% penicillin/streptomycin at 37° C. in a 5% CO2 incubator.
(§2) In order to evaluate the inhibitory effects against IL-6, CCL17, and CCL22 release induced by TNF-α and IFN-γ stimulation in HaCaT cells, an epidermal cell model for the itching associated with the skin barrier, we used a IL-6 ELISA kit (Abcam, UK), a CCL17 ELISA kit (R&D Systems, USA), and a CCL22 ELISA kit (R&D Systems, USA). HaCaT cells were seeded at 1×10^6 cells/well in each well of a coated 6-well plate for cell culture and cultured in a DMEM medium containing 10% FBS and 1% antibiotics (penicillin/streptomycin). After 24 hours, the existing medium was removed. The cells were washed with PBS and a DMEM medium without FBS was added thereto. After N-nonyldeoxynojirimycin was treated at various concentrations, the cells were cultured for 1 hour at 37° C. in a 5% CO2 incubator. The cells were treated with TNF-α and IFN-γ at 10 ng/ml each and then incubated for an additional 24 hours. The cell culture mixture was collected in a 1.5 ml tube and then centrifuged at 2,000 rcf. […] After completion of the reaction, the absorbance was measured at 450 nm using a microplate reader. […]

glucosidase = details: cited from earlier work
hepatic glycogenolysis = details: in vivo; cited from earlier work
[2] = test system: PGE2 release in RBL-2H3 cells; experiment: PGE2 release induced by PMA/A23187 stimulation in RBL-2H3 cells (ELISA); type: cell-based; details: 1 to 40 μM; 50 nM PMA and 1 μM A23187 for 30 minutes; FIG. 3
Protocol: as §1, with “Mast” for “Epidermal”, “(RBL-2H3” for “(HaCaT”, “ATCC (American Type Culture Collection, USA). RBL-2H3” for “Thermo Fisher Scientific (USA). HaCaT”
In order to evaluate the inhibitory effects against […] (PGE2) release of RBL-2H3 cells according to the treatment of N-nonyldeoxynojirimycin, an enzyme-linked immunosorbent assay (ELISA) was performed using a PGE2 ELISA kit (R&D Systems, USA). Specifically, the cultured RBL-2H3 cells were seeded at 1×10^6 cells/well in each well of a 6-well plate for cell culture and cultured in the same manner as in Example 2. After 24 hours, the existing medium was removed. The cells were washed with PBS and a DMEM medium without FBS was added thereto. After N-nonyldeoxynojirimycin was treated at various concentrations (1 to 40 μM), the cells were cultured for 1 hour at 37° C. in a 5% CO2 incubator. The cells were treated with 50 nM of PMA and 1 μM of A23187 and incubated for an additional 30 minutes. The cell culture mixture was collected in a 1.5 ml tube and then centrifuged at 2,000 rcf. The supernatant thereof was subject to the ELISA analysis using a PGE2 ELISA kit (R&D Systems, USA). After completion of the reaction, the absorbance was measured at 450 nm using a microplate reader.

[3] = test system: IL-6 release in HaCaT cells; experiment: IL-6 release induced by TNF-α/IFN-γ stimulation in HaCaT cells (ELISA); type: cell-based; details: various concentrations; TNF-α and IFN-γ 10 ng/ml each, 24 hours; FIG. 4
Protocol: as §1, §2

RBL-2H3 cells = experiment: β-hexosaminidase release induced by PMA/A23187 stimulation (degranulation) in RBL-2H3 cells; type: cell-based
Protocol: as §1, with “Mast” for “Epidermal”, “(RBL-2H3” for “(HaCaT”, “ATCC (American Type Culture Collection, USA). RBL-2H3” for “Thermo Fisher Scientific (USA). HaCaT”
In order to evaluate the inhibitory effects against degranulation of RBL-2H3 cells, β-hexosaminidase release was measured for various compounds. Specifically, the cultured RBL-2H3 cells were seeded at 2×10^5 cells/well in each well of a 24-well plate for cell culture and cultured in a DMEM medium containing 10% FBS and 1% penicillin/streptomycin. After 24 hours, the existing medium was removed. The cells were washed twice with an extracellular buffer (5 mM KCl, 119 mM NaCl, 25 mM PIPES, 0.4 mM MgCl2, 1 mM CaCl2), 40 mM NaOH, 5.6 mM glucose, 0.1% BSA, pH 7.2) and the medium was replaced with the extracellular buffer. […] After the reaction was terminated by adding a stop solution (0.1 M carbonate buffer, pH 10), the absorbance was measured at 405 nm using a microplate reader.
The β-hexosaminidase release was measured in the same manner as in Example 2, except that N-nonyldeoxynojirimycin was treated at various concentrations (1 to 200 μM).

[4] = test system: CCL17 release in HaCaT cells; experiment: CCL17 release induced by TNF-α/IFN-γ stimulation in HaCaT cells (ELISA); type: cell-based; details: various concentrations; TNF-α and IFN-γ 10 ng/ml each, 24 hours; FIG. 5
Protocol: as §1, §2

## CCCCCCCCCN1C[C@H](O)[C@@H](O)[C@H](O)[C@H]1CO [N-nonyldeoxynojirimycin]
[1]
  inhibitory effect against CCL22 release: inhibited the IL-6, CCL17, and CCL22 releases
glucosidase
  glucosidase inhibitory activity: has a glucosidase inhibitory activity
Hepatic glycogenolysis
  inhibition of hepatic glycogenolysis: known to inhibit hepatic glycogenolysis in vivo
[2]
  inhibitory effect against PGE2 release: inhibited the PGE2 release in a concentration-dependent manner
[3]
  inhibitory effect against IL-6 release: inhibited the IL-6, CCL17, and CCL22 releases
RBL-2H3 cells; 1 to 200 μM, PMA/A23187 stimulation, FIG. 2
  inhibitory effect against β-hexosaminidase release according to treatment concentration: inhibits the β-hexosaminidase release in a concentration-dependent manner
RBL-2H3 cells; test material 20 μM, 1 hour, then 50 nM PMA and 1 μM A23187 for 30 minutes, FIG. 1
  inhibitory effect against β-hexosaminidase release: remarkably inhibited the β-hexosaminidase release compared to other alkaloid analogues
[4]
  inhibitory effect against CCL17 release: inhibited the IL-6, CCL17, and CCL22 releases
